Assay results: US9624235B2, “Compounds and methods for inhibition of AP endonuclease-1/redox factor-1 (HAPE1) activity” (University of Pittsburgh—Of the Commonwealth System of …, priority 2012, dated 2017)
Read-outs that look alike come from different tables or passages of the source.

Legend:
SK-MEL-5 melanoma cells = experiment: Combination of APE1 inhibitor 4 with approved anticancer drugs, NCI60 cell line assay; format: cell-based; settings: preliminary screen
Text: FIG. 5. An example of the enhanced activity of vemurafenib in combination with APE1 inhibitor 4 in SK-MEL-5 melanoma cells. Matric controls are run in singlet on each matrix and compared to replicate (n=10) controls for vemurafenib and 4.
APE1 Inhibitor 4 Enhances the Toxicity of Anticancer Drugs in the NCl60 Cell Line Assay—In a preliminary screen using 10 randomly selected cell lines, the effect of APE1 inhibitor 4 on the growth of 20 recently approved non-genotoxic anticancer drugs was assayed.

[1] = tested on: aldehyde reactive sites in genomic DNA from T98G cells; format: cell-based, human
Description: Quantification of Abasic Sites. T98G cells maintained in growth medium, were harvested by Trypsin-EDTA treatment, resuspended in fresh growth medium at a density of 2.5×10^5 cells mL^−1, and 2 mL (5×10^5 cells) of this suspension was seeded into the wells of a sterile 6-well tissue culture plate. Cells were allowed to grow for 24 h, treated with the various compounds for different time points and/or at different concentrations. At the end of each treatment, adherent cells were harvested by trypsin-EDTA treatment and pooled with live and dead cells in culture supernatant. Pooled cells in suspension were pelleted by centrifugation, washed with 1×PBS and genomic DNA was isolated using the DNAzol reagent (Invitrogen). DNA in solution was quantified by UV absorbance (λ260 nm) using a Synergy H1 multiwell plate reader (BioTek, Winooski, Vt.). Abasic sites in purified DNA were then reacted with the biotin-conjugated aldehyde reactive probe (ARP), immobilized onto 96-well ELISA plates, and detected using horseradish peroxidase (HRP)-conjugated streptavidin using a colorimetric substrate as per manufacturer's instructions (Dojindo Molecular Technologies, Rockville, Md.).
The biotin tagged ARS are quantified using an avidin-biotin assay, followed by colorimetric detection with horseradish peroxidase conjugated to avidin.

[2] = target: APE-1 activity in T98G cell nuclear lysates (Homo sapiens (Human), UniProt P27695); experiment: Molecular beacon assay in T98G cell nuclear extracts; format: biochemical
Chain of APE-1 activity in T98G cell nuclear lysates (P27695 whole entry, stated change not applied): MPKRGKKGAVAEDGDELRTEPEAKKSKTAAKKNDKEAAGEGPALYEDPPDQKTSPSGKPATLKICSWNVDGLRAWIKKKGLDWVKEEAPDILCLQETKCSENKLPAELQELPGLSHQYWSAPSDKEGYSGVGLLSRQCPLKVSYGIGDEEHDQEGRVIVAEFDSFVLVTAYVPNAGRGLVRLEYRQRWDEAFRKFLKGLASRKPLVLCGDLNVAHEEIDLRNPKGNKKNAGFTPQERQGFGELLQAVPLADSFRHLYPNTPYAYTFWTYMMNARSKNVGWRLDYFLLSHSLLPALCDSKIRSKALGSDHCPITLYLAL
Description: Isolation and Assay of APE-1 Protein from Nuclear Extracts of Glioma Cells. Human glioblastoma cells (T98G) were maintained in growth medium, i.e., Eagle's Minimum Essential Medium (EMEM) with 10% fetal bovine serum (FBS), […] gentamycin, 1×MEM non-essential amino acids and 1 mM sodium pyruvate. Cells were harvested by Trypsin-EDTA treatment, washed with 1×PBS and nuclear proteins isolated using the CelLytic NuCLEAR Extraction kit (Sigma-Aldrich) as per manufacturer's instructions. Isolated nuclear proteins were estimated colorimetrically (BCA protein assay) and stored at −80° C. (long term) or at −20° C. during regular use. To assay APE-1 activity in T98G cells, nuclear extracts were serially diluted in 10 mM HEPES, 50 mM KCl, 1 mM DTT, 20% (v/v) glycerol and the activities measured via the molecular beacon assay (as described above). […] EC2 nM of nuclear extracts was incubated with 2 to 500 nM hairpin DNA substrate and the V0 measured for each value of [S]. Finally, the apparent KM* was deduced using the software algorithm in Prism (as described previously), and the KM* was used to determine the apparent Ki*. Inhibition of EC2 nM APE-1 activity by the inhibitors was assayed via the molecular beacon assay (described above).
Inhibition of APE-1 Activity in Nuclear Lysates. The ability of 1-5 and 8 to block APE-1 endonuclease activity in a complex mixture of proteins from T98G cell nuclear lysates was tested using the molecular beacon assay. The APE-1 activity in the lysates was standardized to give ˜90% turnover of 25 nM substrate in 10 min.

APE-1 = APE-1 (Homo sapiens (Human), UniProt P27695); experiment: Molecular beacon assay for APE-1 endonuclease inhibition; format: biochemical
Chain of APE-1 (P27695 whole entry): as the sequence (P27695 whole entry, stated change not applied) above
Text: Screening Assays for APE1 Inhibition—The initial screen was designed to look at the effect of potential inhibitors on APE1 repair kinetics. The approach can be used as a high throughput screen by choosing a specific timepoint to monitor. The screen utilizes a molecular beacon with a tetrahydrofuran (THF) abasic site within the stem region of a DNA hairpin that has a fluorophore on the 5′-terminus and a quencher on the 3′-terminus (FIG. 2a). […] An example of the molecular beacon screen and the excision assay are shown in FIGS. 2b,c and 2d, respectively.
Molecular Beacon Assay for Screening of APE-1 Inhibitors. A fluorescence-based molecular beacon assay to measure APE-1 protein activity and inhibition was performed as described previously with some modifications. Tang et al. Neuro Oncol. 13, 471-486 (2011) APE-1 (2 nM) in 10 mM HEPES (pH 7.8) 0.5 mM MgCl, 100 mM NaCl, 100 mM KCl, 0.0005% (w/v) BSA, was incubated with 20 nM 5′-(F)-CGACTXTTGAATTGACACGCCATGTCGATCAATTCAATAGTCG-(D)-3′ [X=tetrahydrofuran (THF) abasic site modification; F, 6-carboxyfluorescein (6-FAM); and D, DABCYL] that forms a hairpin with a 15 base pair stem and a 13 base loop. The THF modification is a known substrate for APE-1 excision. APE-1 mediated cleavage of the phosphodiester backbone at the THF-abasic site led to release of the 5′ 6-FAM (fluorophore) containing pentanucleotide, disrupting the Förster Resonance Energy Transfer (FRET) mediated quenching of the 6-FAM by DABCYL in the native hairpin oligomer. Since the signal was generated by continuous liberation of the fluorophore-labeled excision fragment, progress of this reaction could be monitored in real-time using a Cary Eclipse fluorescence spectrometer (Varian, Palo Alto, Calif.) or a Synergy H1 multi-well plate reader (BioTek, Winooski, Vt.). Reactions were optimized to yield ˜90% substrate turnover in 10 min, and fluorescence intensities measured every 12 s at 495 nm excitation and 520 nm emission. Data from the first 1-3 min of the assays (linear phase) were used to determine rate of substrate turnover (V0). The Michaelis constant (KM) was deduced experimentally, by incubating 2 nM APE-1 protein with 2-500 nM hairpin DNA substrate and measuring V0 —the experimentally observed V0 were analyzed as a function of substrate concentration [S] via non-linear regression using Prism (v.4; GraphPad Software, Inc., La Jolla, Calif.) and the KM was calculated as per the algorithm in the software package. To assay inhibition, 2 nM APE-1 protein was pre-incubated with 0.05-10.00 μM of the candidate inhibitors at 25° C. for 60 min, before initiating the excision assay by addition of hairpin DNA substrate. V0 was calculated at various concentrations of inhibitors and represented as inverse function of increasing inhibitor concentration [I]. […] All assays were carried out in three independent sets to obtain mean data and standard error of mean.
Screening for APE-1 Inhibitors. […] In this assay, the DNA hairpin substrate has a 6-FAM fluorophore on the 5′-terminus, a DABACYL fluorescence quencher on the 3′-terminus and a THF abasic site located 6 base pairs from the 5′-terminus in the stem region (FIG. 6). APE-1 activity is monitored as an increase in fluorescence due to the release of the 5′-(6-FAM)-GCACT fragment as a function of time. […] In this assay, substrate turnover was calculated from relative intensities of cleaved vs. intact oligomers and correlated with inhibitor concentration.

`CCn1c2ccccc2c2cc(/C=N/Nc3cc(C)nc4cc5c(cc34)OCO5)ccc21` [Compound 4] was tested, and the “effect in combination with Vemurafenib” value (SK-MEL-5 melanoma cells) was “>additive”, the “level of ARS” value ([1]; 0.25 μM compound, maintained from 6 h until 18 h) was “approximately 17 ARS/10^5 nucleotides” and the “level of ARS in combination with MeLex” value ([1]; 80 μM MeLex + 0.25 μM inhibitor, through at least 12 h) was 63 sites/10^5 nucleotides. For the same molecule, the Ki [2] was 210 nM, the Ki (APE-1; molecular beacon assay, endonuclease activity, read-out: Ki APE-1 endonuclease inhibition) was 120 nM and the Ki (APE-1; molecular beacon screen, read-out: Ki, inhibition curve FIG. 2(c)) was 345 nM.
